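Protocol summary: plate cells (96-well), add compound at 5 concentrations, incubate 48 h, interpolate endpoints linearly. GI50 marks 50% less growth.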 The source made the active and inactive calls. Cut-off read from the data, not from the text of the source: active = GI50 up to about 1.1 µM and inactive = higher. *1 amine or outer side, *2 acyl side, *3 side chain or, on linkers, in order; H or OH if unused. Where a SMILES comes first, the peptide text is derived from it. [ ]: non-standard residue; d: D form. The star is where a group is joined. ξ: configuration not given here. NMeY = CN[C@@H](Cc1ccc(O)cc1)C(=O)O; Ethylenediamine = C(CN[*:2])N[*:1]; ξNMeL = CNC(CC(C)C)C(=O)O; Cbz = O=C(OCc1ccccc1)*; Lac = C[C@H](O)C(=O)O; ξA = CC(N)C(=O)O
Assays:
Experiment in all cases: NCI tumour cell line growth inhibition, 48 h
DU-145 = tested on: DU-145
SNB-75 = tested on: SNB-75
SW-620 = tested on: SW-620
NCI-H522 = tested on: NCI-H522
NCI-H226 = tested on: NCI-H226
786-0 = tested on: 786-0
UACC-62 = tested on: UACC-62
HL-60 = tested on: HL-60
MDA-MB-231 = tested on: MDA-MB-231
OVCAR-4 = tested on: OVCAR-4
NCI/ADR-RES = tested on: NCI/ADR-RES
SN12C = tested on: SN12C
SK-MEL-5 = tested on: SK-MEL-5
PC-3 = tested on: PC-3
HCT-116 = tested on: HCT-116
SR = tested on: SR
SF-295 = tested on: SF-295
HCC 2998 = tested on: HCC 2998
OVCAR-8 = tested on: OVCAR-8
RPMI-8226 = tested on: RPMI-8226

SMILES	GI50 (DU-145)	GI50 (SNB-75)	GI50 (SW-620)	GI50 (NCI-H522)	GI50 (NCI-H226)	GI50 (786-0)	GI50 (UACC-62)	GI50 (HL-60)	GI50 (MDA-MB-231)	GI50 (OVCAR-4)	GI50 (NCI/ADR-RES)	GI50 (SN12C)	GI50 (SK-MEL-5)	GI50 (PC-3)	GI50 (HCT-116)	GI50 (SR)	GI50 (SF-295)	GI50 (HCC 2998)	GI50 (OVCAR-8)	GI50 (RPMI-8226)
CC1CC(=O)N(N(C)C)C(C#N)(C#N)C1(C#N)C#N (stereo not given)	18.2 µM (inactive)	> 35.6 µM (inactive)	5.12 µM (inactive)	2.77 µM (inactive)	28.1 µM (inactive)	12.2 µM (inactive)	18.3 µM (inactive)	0.653 µM (active)	15.2 µM (inactive)	18.3 µM (inactive)	21.7 µM (inactive)	21 µM (inactive)	21.9 µM (inactive)	18.4 µM (inactive)	17 µM (inactive)	4.99 µM (inactive)	> 50.1 µM (inactive)	18.5 µM (inactive)	20.9 µM (inactive)	4.14 µM (inactive)
CC(O)c1cc2c(s1)C(=O)c1sccc1C2=O (stereo not given)	0.0202 µM (active)	0.0902 µM (active)	0.0453 µM (active)	0.148 µM (active)	0.207 µM (active)	0.303 µM (active)	0.0519 µM (active)	0.0859 µM (active)	0.172 µM (active)	0.168 µM (active)	0.178 µM (active)	0.112 µM (active)	0.0164 µM (active)	0.289 µM (active)	0.151 µM (active)	0.0803 µM (active)	0.0792 µM (active)	0.202 µM (active)	0.191 µM (active)	0.184 µM (active)
Nc1nc(O)c(Br)c(-c2cccc([N+](=O)[O-])c2)n1	> 100 µM (inactive)	55 µM (inactive)	> 100 µM (inactive)	26.4 µM (inactive)	49.9 µM (inactive)	> 100 µM (inactive)	> 51.9 µM (inactive)	> 71.1 µM (inactive)	> 100 µM (inactive)	> 100 µM (inactive)	> 100 µM (inactive)	> 100 µM (inactive)	> 59.6 µM (inactive)	> 100 µM (inactive)	> 100 µM (inactive)	64 µM (inactive)	> 50.4 µM (inactive)	> 100 µM (inactive)	73.5 µM (inactive)	37.8 µM (inactive)
CCN(CCCl)c1cc(CN(C)C)cc(NC(=O)C23CCC(C(=O)Nc4cc(CN(C)C)cc(N(CC)CCCl)c4)(CC2)CC3)c1	0.804 µM (active)	1.01 µM (active)	0.105 µM (active)	0.202 µM (active)	1.4 µM (inactive)	0.073 µM (active)	1.14 µM (inactive)	0.0157 µM (active)	12.8 µM (inactive)	1.4 µM (inactive)	29.9 µM (inactive)	0.245 µM (active)	1.75 µM (inactive)	0.351 µM (active)	1.11 µM (active)	0.0329 µM (active)	1.59 µM (inactive)	1.33 µM (inactive)	1.11 µM (active)	1.35 µM (inactive)
COc1ccc(CCCCl)c(C2=NCCc3ccccc32)c1	> 100 µM (inactive)	29.1 µM (inactive)	70.8 µM (inactive)	6.75 µM (inactive)	31.7 µM (inactive)	89.5 µM (inactive)	84.5 µM (inactive)	10.4 µM (inactive)	25.1 µM (inactive)	45.1 µM (inactive)	> 100 µM (inactive)	9.91 µM (inactive)	9.59 µM (inactive)	19.5 µM (inactive)	29.5 µM (inactive)	28.1 µM (inactive)	32.8 µM (inactive)	23.4 µM (inactive)	35.4 µM (inactive)	2.99 µM (inactive)
COc1ccc(C[C@@H](C(=O)NCCNC(=O)C(CC(C)C)N(C)C(=O)[C@@H]2CCCN2C(=O)[C@H](C)O)N(C)C(=O)[C@@H]2CCCN2C(=O)[C@H](CC(C)C)NC(=O)C(C)NC(=O)OCc2ccccc2)cc1 (stereo not given in full) (Cbz-[ξA]LP[NMeY](Me)-{Ethylenediamine-ξNMeL-Pro-Lac})	> 100 µM (inactive)	89.5 µM (inactive)	> 100 µM (inactive)	> 100 µM (inactive)	> 100 µM (inactive)	> 100 µM (inactive)	96.2 µM (inactive)	38.4 µM (inactive)	91.4 µM (inactive)	> 100 µM (inactive)	> 100 µM (inactive)	> 100 µM (inactive)	33.5 µM (inactive)	> 100 µM (inactive)	> 100 µM (inactive)	54.3 µM (inactive)	> 100 µM (inactive)	> 100 µM (inactive)	> 100 µM (inactive)	33.9 µM (inactive)

Reference: ChEMBL document CHEMBL1201862, “PubChem BioAssay data set” (2004)
